In brackets after ≈: the same amount, converted by molar mass. Counter-ions that a name gives are not always drawn. Like-named read-outs stand apart in the source and are kept apart here.
What was measured:
Type in all cases: cell-based
[1] = system: S. aureus NB01080 fluoroquinolone-resistant clinical isolate; test: MIC by broth microdilution, S. aureus NB01080; conditions: Staphylococcus aureus, CAMHB, 35° C., 20 hours, read-out: Antibacterial activity (MIC) NB01080
Outline: (§1)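 Per CLSI, strains grown overnight on Mueller-Hinton agar are tested in cation-adjusted Mueller-Hinton broth at about 5×10^5 CFU/mL against serially diluted compound, 1% DMSO final. Incubation runs 20 h at 35° C; MIC is judged visually with OD600 support.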

[2] = system: S. aureus ATCC 49951 (NB01006); test: MIC by broth microdilution, S. aureus NB01006; conditions: Staphylococcus aureus, ATCC49951, CAMHB, 35° C., 20 hours, read-out: Antibacterial activity (MIC) NB01006
Outline: as §1

[3] = system: S. pneumoniae ATCC 25922 (NB07001); test: MIC by broth microdilution, S. pneumoniae NB07001; conditions: Streptococcus pneumoniae, read-out: Antibacterial activity (MIC) NB07001
Outline: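 CAMHB, ~5×10^5 CFU/mL, 2-fold serial dilutions (final DMSO 1%), 35° C, ambient air, 20 h. Read OD600 plus visual check; MIC = lowest conc. with no visible growth, μg/mL.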

[4] = system: P. aeruginosa NB52019, wild-type PAO1 strain; test: MIC by broth microdilution, P. aeruginosa NB52019; conditions: Pseudomonas aeruginosa, CAMHB, 35° C., 20 hours, read-out: Antibacterial activity (MIC) NB52019
Outline: as §1

[5] = system: E. faecalis ATCC 29212 (NB04001); test: MIC by broth microdilution, E. faecalis NB04001; conditions: Enterococcus faecalis, ATCC29212, CAMHB, 35° C., 20 hours, read-out: Antibacterial activity (MIC) NB04001
Outline: as §1

[6] = system: S. aureus NB01006-AVR005, gyrA (S84L), grlA (580F) and grlB (E471K); test: microbe, parasite or virus in culture; conditions: Staphylococcus aureus, 20 h, read-out: Antibacterial activity (MIC) NB01006-AVR005
Outline: as §1

[7] = system: E. coli ATCC 25922 (NB27001); test: MIC by broth microdilution, E. coli NB27001; conditions: Escherichia coli, ATCC25922, CAMHB, 35° C., 20 hours, read-out: Antibacterial activity (MIC) NB27001
Outline: as §1

[8] = ATCC25922, S. pneumoniae, CAMHB supplemented with 5% lysed horse blood, 35° C., 20 hours

Row | Compound | MIC [1] [µg/mL] | MIC [2] [µg/mL] | MIC ([3]; ATCC25922, 20 h) [µg/mL] | MIC [4] [µg/mL] | MIC [5] [µg/mL] | MIC [6] [µg/mL] | MIC [7] [µg/mL] | MIC [3, 8] [µg/mL]
1 | C[C@H]1COc2c(N3CC[C@@H](C4(N)CC4)C3)cc(N)c3cc(C(=O)O)c(=O)n1c23 [Example 20, (S)-8-amino-10-((R)-3-(1-aminocyclopropyl)pyrrolidin-1-yl)-3-methyl-5-oxo-2,3-dihydro-5H-[1,4]oxazino[2,3,4-ij]quinoline-6-carboxylic acid] | 1 to 32 (≈ 2.6 to 83.2 µM) | < 1 | < 1 | > 32 | 1 to 32 (≈ 2.6 to 83.2 µM) | 1 to 32 (≈ 2.6 to 83.2 µM) | 1 to 32 (≈ 2.6 to 83.2 µM) | 
2 | C[C@H]1COc2c(N3CC4=C(CNC4)C3)c(F)cc3cc(C(=O)O)c(=O)n1c23 [Example 1.59, (S)-9-fluoro-3-methyl-5-oxo-10-(3,4,5,6-tetrahydropyrrolo[3,4-c]pyrrol-2(1H)-yl)-2,3-dihydro-5H-[1,4]oxazino[2,3,4-ij]quinoline-6-carboxylic acid] | 1 to 32 (≈ 2.69 to 86.2 µM) | 1 to 32 (≈ 2.69 to 86.2 µM) | 1 to 32 (≈ 2.69 to 86.2 µM) | > 32 | > 32 | > 32 | 1 to 32 (≈ 2.69 to 86.2 µM) | 
3 | CCc1c(F)c(N2CC[C@@H](C3(N)CC3)C2)c2c3c1cc(C(=O)O)c(=O)n3[C@@H](C)CO2 [Example 23, (S)-10-((R)-3-(1-aminocyclopropyl)pyrrolidin-1-yl)-8-ethyl-9-fluoro-3-methyl-5-oxo-2,3-dihydro-5H-[1,4]oxazino[2,3,4-ij]quinoline-6-carboxylic acid] | 1 to 32 (≈ 2.41 to 77 µM) | 1 to 32 (≈ 2.41 to 77 µM) | 1 to 32 (≈ 2.41 to 77 µM) | > 32 | 1 to 32 (≈ 2.41 to 77 µM) | > 32 | > 32 | 
4 | C[C@H]1CNc2c(N3CC[C@@H](C4(N)CC4)C3)c(F)cc3cc(C(=O)O)c(=O)n1c23.Cl [Example 10, (S)-10-((R)-3-(1-aminocyclopropyl)pyrrolidin-1-yl)-9-fluoro-3-methyl-5-oxo-2,3-dihydro-1H,5H-pyrido[1,2,3-de]quinoxaline-6-carboxylic acid hydrochloride salt] | 1 to 32 | 1 to 32 |  | > 32 | 1 to 32 | > 32 | 1 to 32 | 1 to 32
5 | C[C@H]1COc2c(N3CCC(CNC4CC4)C3)c(F)cc3cc(C(=O)O)c(=O)n1c23 (mixture of isomers) [Example 1.11, (3S)-10-(3-((cyclopropylamino)methyl)pyrrolidin-1-yl)-9-fluoro-3-methyl-5-oxo-2,3-dihydro-5H-[1,4]oxazino[2,3,4-ij]quinoline-6-carboxylic acid] | 1 to 32 | 1 to 32 | < 1 | > 32 | 1 to 32 | > 32 | 1 to 32 | 
6 | C[C@H]1COc2c(N3CC[C@@H](C4(N)CC4)C3)c(F)c(Cl)c3cc(C(=O)O)c(=O)n1c23 [Example 19.1, (S)-10-((R)-3-(1-aminocyclopropyl)pyrrolidin-1-yl)-8-chloro-9-fluoro-3-methyl-5-oxo-2,3-dihydro-5H-[1,4]oxazino[2,3,4-ij]quinoline-6-carboxylic acid formate salt] | < 1 | < 1 | < 1 | > 32 | < 1 | < 1 | 1 to 32 | 
7 | C[C@H]1COc2c(N3CC4CCCC(C3)N4)c(F)cc3cc(C(=O)O)c(=O)n1c23 [Example 1.66, (3S)-10-(3,9-diazabicyclo[3.3.1]nonan-3-yl)-9-fluoro-3-methyl-5-oxo-2,3-dihydro-5H-[1,4]oxazino[2,3,4-ij]quinoline-6-carboxylic acid] | > 32 | 1 to 32 (≈ 2.58 to 82.6 µM) |  | > 32 | > 32 | > 32 | 1 to 32 (≈ 2.58 to 82.6 µM) | 1 to 32 (≈ 2.58 to 82.6 µM)
8 | C[C@H](N)[C@@H]1CCN(c2c(F)cc3cc(C(=O)O)c(=O)n4c3c2OC[C@@H]4C)C1 [Example 1.5, (S)-10-((R)-3-((S)-1-aminoethyl)pyrrolidin-1-yl)-9-fluoro-3-methyl-5-oxo-2,3-dihydro-5H-[1,4]oxazino[2,3,4-ij]quinoline-6-carboxylic acid] | < 1 | < 1 | < 1 | 1 to 32 (≈ 2.66 to 85.2 µM) | < 1 | 1 to 32 (≈ 2.66 to 85.2 µM) | 1 to 32 (≈ 2.66 to 85.2 µM) | 
9 | C[C@H]1COc2c(N3CCC(C4CC4N)CC3)c(F)cc3cc(C(=O)O)c(=O)n1c23 (mixture of isomers) [Example 1.64, (3S)-10-(4-(2-aminocyclopropyl)piperidin-1-yl)-9-fluoro-3-methyl-5-oxo-2,3-dihydro-5H-[1,4]oxazino[2,3,4-ij]quinoline-6-carboxylic acid] | > 32 | 1 to 32 | 1 to 32 | > 32 | 1 to 32 | > 32 | > 32 | 
10 | C[C@H]1COc2c(N3CC4CNC4C3)c(F)cc3cc(C(=O)O)c(=O)n1c23 (single isomer, unassigned) [Example 1.39] | > 32 | > 32 | > 32 | > 32 | > 32 | > 32 | > 32 | 

From patent US20180318311A1, “TRICYCLIC 2-QUINOLINONES AS ANTIBACTERIALS” (priority 2017, published 2018)
